Assay results published in PubChem BioAssay (NCI).
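The compound was tested at five concentrations on cells cultured in 96-well plates, with a 48-hour exposure period. Here, GI50 denotes the concentration required for 50% inhibition of growth. The concentration for full growth arrest is given as TGI.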

How the values were obtained:
Assay in all cases: NCI-60 cell line screen, 48 h
SN12C renal = tested on: SN12C renal
OVCAR-3 ovarian = tested on: OVCAR-3 ovarian
HOP-92 NSCLC = tested on: HOP-92 NSCLC
MOLT-4 leukemia = tested on: MOLT-4 leukemia
BT-549 breast = tested on: BT-549 breast
MDA-MB-231 breast = tested on: MDA-MB-231 breast
PC-3 prostate = tested on: PC-3 prostate
DU-145 prostate = tested on: DU-145 prostate
HS 578T breast = tested on: HS 578T breast
RPMI-8226 leukemia = tested on: RPMI-8226 leukemia

| SMILES | TGI (SN12C renal) [µM] | TGI (OVCAR-3 ovarian) [µM] | TGI (HOP-92 NSCLC) [µM] | TGI (MOLT-4 leukemia) [µM] | GI50 (BT-549 breast) [µM] | TGI (BT-549 breast) [µM] | GI50 (SN12C renal) [µM] | GI50 (OVCAR-3 ovarian) [µM] | GI50 (MDA-MB-231 breast) [µM] | TGI (MDA-MB-231 breast) [µM] | GI50 (HOP-92 NSCLC) [µM] | GI50 (PC-3 prostate) [µM] | TGI (PC-3 prostate) [µM] | GI50 (MOLT-4 leukemia) [µM] | GI50 (DU-145 prostate) [µM] | TGI (DU-145 prostate) [µM] | GI50 (HS 578T breast) [µM] | TGI (HS 578T breast) [µM] | GI50 (RPMI-8226 leukemia) [µM] | TGI (RPMI-8226 leukemia) [µM] |
| --- | --- | --- | --- | --- | --- | --- | --- | --- | --- | --- | --- | --- | --- | --- | --- | --- | --- | --- | --- | --- |
| COc1ccc2nc(NC(=O)C(=O)CC(=O)c3ccc(Cl)cc3)sc2c1 | > 100 | > 100 | > 100 | > 100 | – | – | – | – | – | – | – | – | – | – | – | – | – | – | – | – |
| NC(=NC1CCCCCC1)c1ccc(N2CCN(c3ccc(C(N)=NC4CCCCCC4)cc3)CC2)cc1 | 16.9 | 28.8 | 28.7 | > 50 | 2.1 | 5.48 | 2.33 | 4.28 | 8.39 | 29 | 8.29 | 12.1 | > 50 | 23.9 | 7.59 | > 50 | – | – | – | – |
| CCC(C)/C=C(C)/C=C/C(=O)c1c(O)c(-c2ccc(O)cc2)c[nH]c1=O (centres undefined) | 18.1 | 9.33 | – | 15.1 | 4.42 | 15.3 | 3.86 | 2.79 | 5.09 | 21.4 | – | 3.33 | 14.4 | 2.73 | 2.87 | 11.1 | 2.49 | 9.56 | 3.45 | 17.6 |
| Cc1cc(-c2nc3ccc(O)cc3s2)ccc1N | > 100 | > 100 | > 100 | > 100 | 14.2 | 33.9 | 39 | 39.3 | 44.7 | > 100 | > 100 | 50.2 | > 100 | 27.1 | 34.1 | > 100 | 95.5 | > 100 | – | – |
| CCOC(=O)C#Cc1ccc(C#CC(=O)OCC)cc1 | – | > 20.5 | > 31.7 | – | – | > 21.7 | – | – | – | > 22.7 | – | – | > 28.4 | – | – | > 28 | – | 29 | – | > 25.3 |
| Cc1c(C(=O)CC(=O)C(=O)Nc2cccc(C(F)(F)F)c2)[n+](=O)c2ccccc2n1[O-] | 11 | 4.92 | 38.9 | 7.56 | – | – | – | – | – | – | – | – | – | – | – | – | – | – | – | 11.7 |
| CN(C)c1ccc(/C=C2\N=C(c3ccc(N)cc3)OC2=O)cc1 | > 100 | > 100 | > 100 | > 100 | – | – | – | – | – | – | – | – | – | – | – | – | – | – | – | > 100 |
| Cc1cc(N/N=C/c2nc(-c3ccccc3)oc2C)c2cc(Cl)ccc2n1 | 3.49 | 3.57 | 2.87 | 4.54 | 14.9 | 29.3 | 1.78 | 1.94 | 1.85 | 3.69 | 1.43 | 1.8 | 3.55 | 2.04 | 2.15 | 4.49 | – | – | – | – |
| Cc1nn2c(/C=C3/C(=O)Nc4ccccc43)c(-c3ccc(Cl)cc3)nc2s1 | – | > 50 | – | > 50 | 10.7 | > 50 | – | 13.4 | 7.05 | 21.3 | – | 12.2 | 32.2 | > 50 | – | – | 27.7 | > 50 | 4.37 | > 50 |
| Cc1cc(S(=O)(=O)NC#N)c(S/C(=N\Nc2ccc([N+](=O)[O-])cc2)c2ccccc2)cc1Cl | 52.3 | 30.5 | 32.7 | 81.2 | 15.7 | 36.7 | 20.9 | 14.2 | – | – | 10.7 | 21.5 | 57.1 | 4.43 | 11.7 | 24 | 16.2 | 43.2 | 19.5 | 61.8 |
| COc1cc(-c2cc(-c3nc4ccccc4[nH]3)[nH]n2)cc(OC)c1OC | 20.4 | 16.4 | – | 5.17 | 1.8 | 8.11 | 3.91 | 4 | 3.22 | 15.8 | – | 2.1 | 8.54 | 2.13 | 3.9 | 16.7 | 6.89 | > 100 | 1.2 | 4.16 |
| Nc1ncc(-c2ccc(C(F)(F)F)cc2)c(NC2CCCCCC2)n1 | > 100 | > 100 | – | 81.5 | 34.9 | > 100 | 29.4 | 35.9 | 21.3 | 76.9 | – | 25.4 | > 100 | 23.3 | 39.9 | > 100 | 25.5 | > 100 | 8.91 | 41.1 |
| O=c1[nH]nc2c3c(cccc13)NC(CN1Cc3ccccc3C1)=N2 | > 100 | > 100 | – | > 100 | 34.7 | > 100 | 6.75 | 5.64 | 5.5 | > 100 | – | 7.23 | > 100 | 4.56 | 5 | > 100 | 37.4 | > 100 | 8.17 | > 100 |
| COC[C@H]1OC(=O)c2coc3c2[C@@]1(C)C1=C(C3=O)[C@@H]2CCC(=O)[C@@]2(C)C[C@H]1OC(C)=O | > 100 | > 78.1 | – | 42.3 | 0.485 | 12.7 | – | – | 14.4 | > 100 | – | – | > 100 | – | – | > 100 | 0.341 | 6.9 | – | > 63.6 |
| CCc1nc2ccc(Cc3ccc(C(=O)NO)cc3)cc2c(=O)n1CCc1ccccc1 | – | 3.85 | 2.98 | 16.7 | 1.73 | 4.79 | – | 1.15 | 1.31 | 3.98 | 1.36 | – | – | 0.637 | 1.09 | 7.81 | 1.59 | 7.4 | 1.07 | 10.3 |
